Assay results: US20250134844A1, “THERAPEUTIC USE OF PLEUROMUTILINS” (Nabriva Therapeutics GmbH, priority 2022, published 2025)
Converted amounts (≈) assume the structure as drawn. Read-outs that look alike come from different tables or passages of the source. One block for each molecule: values may come before it.

Tests used:
Borreliella spp. = experiment: MIC by broth microdilution against Borreliella isolates; assay type: cell-based; conditions: range over 6 isolates (5 B. burgdorferi, 1 B. garinii)
Procedure: Minimal inhibitory concentrations (MIC) were determined against five (n=5) Borreliella burgdorferi isolates (ATCC 51990, 55131, 35211, 35210, 53899) and one (n=1) Borreliella garinii isolate (ATCC 51991) by broth microdilution technique (Dever, L. L., Jorgensen, J. H., Barbour, A. G. In vitro antimicrobial susceptibility testing of Boreliella burgdorferi: a microdilution MIC method and time-kill studies. J Clin Microbiol. 30(10), 2692-2697. (1992) doi: 10.1128/jcm.30.10.2692-2697.1992; Feng, J., Wang, T., Shi, W., et al. Identification of novel activity against Boreliella burgdorferi persisters using an FDA approved drug library. Emerg Microb Infect 3, e49 (2014) doi: 10.1038/emi.2014.53). The general procedures for broth microdilution were done according to the CLSI guidelines M7 and M100-S31 (CLSI. (2018) Methods for dilution antimicrobial susceptibility tests for bacteria that grow aerobically; Eleventh edition. M07.; CLSI. (2021) Performance Standards for Antimicrobial Susceptibility Testing; Thirty-first Edition. M100-S31).
Briefly, Borreliella spp. were grown at 36° C. under microaerophilic conditions in BSK II medium until the logarithmic or stationary growth phase was reached. The growth phase was determined by semiquantitative measurement of active and dormant cells by fluorescence microscopy of cells stained with the fluorescent dyes SYBR Green I and propidium iodide. An inoculum of 10^5−10^6 spirochetes/mL was used to inoculate broth microdilution plates containing serially 2-fold diluted test compounds.

[1] = tested on: T. pallidum Chicago strain; experiment: In vitro susceptibility in co-culture with rabbit Sf1Ep cells, qPCR of tp0574 gene; assay type: cell-based, Treponema pallidum
Procedure: (§1) The in vitro susceptibility determination essentially followed the protocol described by Edmondson et al. (Edmondson, D. G., Hu, B., Norris, S. J. Long-Term In Vitro Culture of the Syphilis Spirochete Treponema pallidum subsp. pallidum. mBio 9(3) e01153-18. (2018). doi: 10.1128/mBio.01153-18).
(§2) Briefly, 3×10^3 rabbit Sf1Ep cells seeded in 96-well microtiter plates in 150 μl of culture media, were inoculated with the T. pallidum strains Chicago and SS14 at an inoculum of 3×10^3 (counted using dark field microscopy) in TpCM-2 medium that was equilibrated overnight at 34° C. in a microaerophilic environment consisting of 1.5% O2, 3.5% CO2 and 95% N2 supplied as a tri-gas mix. Lefamulin and penicillin G were added from 100-fold concentrated stocks in water to achieve the final test concentrations of 5, 2.5, 0.5, 0.1, 0.02. 0.01. 0.005, and 0.0025 μg/ml for Lefamulin and 60 ng/ml for penicillin G. Then the culture plates were incubated at 34° C. in a tri-gas incubator. Cells were then lysed and the DNA extracted using a Quick DNA-96 kit followed by the quantification of the treponemes by quantitative real-time PCR in triplicate targeting the tp0574 gene (Giacani L, Molini B, Godornes C, Barrett L, Van Voorhis WC, Centurion-Lara A, et al. Quantitative analysis of tpr gene expression in Treponema pallidum isolates: differences among isolates and correlation with T-cell responsiveness in experimental syphilis. Infect Immun. 75(1), 104-12 (2007). doi: 10.1128/IAI.01124-06).

T. pallidum SS14 strain = experiment: as above; assay type: cell-based, Treponema pallidum
Procedure: as §1, §2

[2] = tested on: T. pallidum cells (Chicago strain); experiment: Rabbit model of intradermal Treponema pallidum infection (syphilis); assay type: in vivo
Procedure: The preclinical study to test Lefamulin against T. pallidum was conducted in analogy to an investigation of the antibiotic compound linezolid (Haynes, A. M., Giacani, L., Vall Mayans, M., et al. Efficacy of linezolid on Treponema pallidum, the syphilis agent: A preclinical study. eBioMedicine 65, 103281 (2021). doi: 10.1016/j.ebiom.2021.103281).
In the syphilis infection model, each animal was infected intradermally (ID) with 10^6 freshly harvested, viable and infectious T. pallidum cells (Chicago strain) per site of infection on 10 sites on their shaved backs to induce appearance of primary syphilis lesions. Treponemal viability prior to ID infection was assessed by dark field microscopy (DFM). A dose of infectious treponemes (10^6/site of infection) induces the appearance of an erythematous lesion at the inoculation site within ˜5 days post-inoculation. Overall, the arch of lesion progression from the erythematous stage to the indurated, ulcerated, and healed stages encompasses approximately 4 weeks.
Herein, three groups of three rabbits were infected. Three animals were treated orally with 70 mg/kg Lefamulin every 12 h for 3 days (day 7 to day 10 post-infection). As positive control group, another three animals were treated with Benzathine penicillin G (BPG) as single intramuscular (IM) injection (300,000 units; equivalent w/w to 4.8 million units for humans). One group (n=3) served as untreated control. The cutaneous lesions were monitored macroscopically for clinical development, documented by photography on regular basis and measured for their diameter every day for a period of 40 days.
Treponemal burden within these lesions was assessed by taking needle aspirates from the lesions and analyzing the aspirates for pathogen cell count using DFM as well as quantification of treponemal DNA extracted from the aspirates at day 3, 8, 12, and 16 Additionally, mRNA extracted from lesion biopsies obtained post-treatment initiation was also quantified as a surrogate of viability. The gene copy number of the T. pallidum tp0574 gene was quantified by qPCR. Additionally, the tp0574 gene message was normalized to the message of the rabbit housekeeping gene HPRT to evaluate the burden of viable T. pallidum cells within lesion biopsies.

T. pallidum = experiment: Rabbit infectivity test (RIT) with popliteal lymph nodes; assay type: in vivo
Excerpt: The test rabbits from Example 3 were used for a subsequent study in a RIT, wherein samples from the popliteal lymph nodes were transferred to new (naïve) rabbits, which were subsequently analyzed for disease symptoms and tested serologically (Haynes, A. M., Giacani, L., Vall Mayans, M., et al. Efficacy of linezolid on Treponema pallidum, the syphilis agent: A preclinical study. eBioMedicine 65, 103281 (2021). Doi: 10.1016/j.ebiom.2021.103281).
Following euthanasia, popliteal lymph nodes (LN) from all the rabbits in the Lefamulin, BPG, and control groups were harvested. Lymph nodes from each rabbit were pooled and homogenized in a solution containing equal amounts of sterile saline and serum from an uninfected rabbit. One milliliter of homogenate from each test rabbit was then inoculated into the left testicle of a naïve rabbit to perform the RIT. For the rabbit, which died at day 3 post-treatment initiation, lymph nodes were harvested and transferred to a RIT rabbit within 1 hour after the animal's death.
Inoculated animals were checked for orchitis twice weekly. Serum was collected monthly for three months and analyzed with two different serological tests, i.e. VDRL (Venereal Disease Research Laboratory; Becton-Dickinson, Franklin Lanes, NJ) and TPPA (Treponema pallidum Particle Agglutination; Fujirebio, Malvern, PA). Also an FTA-ABS test (Fluorescent Treponemal Antibody-Absorption; Trinity Biotech, Jamestown, NY) was performed.

[3] = 192 h, stationary growth phase cultures, read after 8 days, read-out: MIC (μg/mL) for Stationary Growth Phase Culture (n = 6)
[4] = logarithmic growth phase cultures, read after 5 or 6 days, read-out: MIC (μg/mL) for Logarithmic Growth Phase Culture (n = 6)

Structure (SMILES): C=C[C@]1(C)C[C@@H](OC(=O)CS[C@@H]2CC[C@@H](N)C[C@H]2O)[C@]2(C)[C@H](C)CC[C@]3(CCC(=O)[C@H]32)[C@@H](C)[C@@H]1O [Lefamulin, 14-O-{[(1R, 2R, 4R)-4-amino-2-hydroxy-cyclohexylsulfanyl]-acetyl}-mutilin]
- MIC (Borreliella spp.; [3]): 0.001 to 0.008 µg/mL (≈ 0.00197 to 0.0158 µM)
- MIC (Borreliella spp.; [4]): 0.001 to 0.008 µg/mL (≈ 0.00197 to 0.0158 µM)
- mean copy number of tp0574 gene ([1]; Chicago strain, at ≥10 ng/ml Lefamulin, day 7, untreated control 13,052 copies/μL): 324-403 copies/μL
- MIC ([1]; Treponema pallidum, 168 h, T. pallidum Chicago strain, day 7, read-out: minimal inhibitory concentration (MIC)): ≥ 0.01 µg/mL
- mean copy number of tp0574 gene (T. pallidum SS14 strain; SS14 strain, at ≥10 ng/mL Lefamulin, day 7, untreated control 894 copies/μL): 33-124 copies/μL
- inhibiting Lefamulin concentration (T. pallidum SS14 strain; T. pallidum SS14 strain, inhibited at 10-20 ng/mL or higher): 10 to 20 ng/mL
- death in treated group ([2]; 70 mg/kg orally every 12 h, day 3 of treatment, most likely inhalation of Lefamulin caused by reflux): one rabbit died
- lesion progression past the initial state of mild induration ([2]; 40 days observation): None of the lesions in these two groups progressed past the initial state of mild induration
- T. pallidum mRNA (tp0574 message normalized to HPRT) in lesion biopsies ([2]; day 3 post-treatment initiation): absent
- lesions still measurable ([2]; day 9 post-treatment initiation): 14%
- lesion diameter compared to the untreated controls ([2]; day 10 post-infection, end of treatment, p<0.05): significantly lower
- day post-treatment initiation by which no induration could be measured at any site ([2]; post-treatment initiation): ≤ 13 days
- T. pallidum cells in lesion aspirates by DFM ([2]; since day 3 post-treatment initiation): no treponemal bacteria could be found
- orchitis or seroconversion (VDRL, TPPA) of RIT rabbits (T. pallidum; 3-months observation period, lymph nodes from treated test rabbits): None of the animals developed orchitis or seroconverted
- seroconversion in FTA-ABS test (T. pallidum; RIT rabbits, control animals 3+ reactivity or higher): none of the BGP or Lefamulin treated animals seroconverted

Structure (SMILES): C[C@H]1COc2c(N3CCN(C)CC3)c(F)cc3c(=O)c(C(=O)O)cn1c23 [Levofloxacin]
- MIC (Borreliella spp.; [3]): 2 to 8 µg/mL (≈ 5.53 to 22.1 µM)
- MIC (Borreliella spp.; [4]): 2 to 4 µg/mL (≈ 5.53 to 11.1 µM)

Structure (SMILES): C=C[C@]1(C)C[C@@H](OC(=O)CO)[C@]2(C)[C@H](C)CC[C@]3(CCC(=O)[C@H]32)[C@@H](C)[C@@H]1O [Pleuromutilin]
- MIC (Borreliella spp.; [3]): 0.12 to 2 µg/mL (≈ 0.317 to 5.28 µM)
- MIC (Borreliella spp.; [4]): 0.12 to 1 µg/mL (≈ 0.317 to 2.64 µM)

Structure (SMILES): CC1(C)S[C@@H]2[C@H](NC(=O)Cc3ccccc3)C(=O)N2[C@H]1C(=O)O [penicillin G]
- copy number of tp0574 gene ([1]; Chicago strain, penicillin G 60 ng/mL): 247 copies/μL
- copy number of tp0574 gene (T. pallidum SS14 strain; SS14 strain, penicillin G 60 ng/mL): 91 copies/μL

Results, then the molecule that gave them:

- MIC (Borreliella spp.; [3]): 0.001 to 0.004 µg/mL (≈ 0.00136 to 0.00545 µM)
- MIC (Borreliella spp.; [4]): 0.002 to 0.016 µg/mL (≈ 0.00273 to 0.0218 µM)
Structure (SMILES): CC[C@H]1OC(=O)[C@H](C)[C@@H](O[C@H]2C[C@@](C)(OC)[C@@H](O)[C@H](C)O2)[C@H](C)[C@@H](O[C@@H]2O[C@H](C)C[C@H](N(C)C)[C@H]2O)[C@](C)(O)C[C@@H](C)C(=O)[C@H](C)[C@@H](O)[C@]1(C)O [Erythromycin]

- MIC (Borreliella spp.; [3]): 0.03 to 0.25 µg/mL (≈ 0.0608 to 0.506 µM)
- MIC (Borreliella spp.; [4]): 0.03 to 0.5 µg/mL (≈ 0.0608 to 1.01 µM)
Structure (SMILES): C=C[C@]1(C)C[C@@H](OC(=O)CSCCN(CC)CC)[C@]2(C)[C@H](C)CC[C@]3(CCC(=O)[C@H]32)[C@@H](C)[C@@H]1O [Tiamulin]
